Laboratory results published in patent US20180318355A1, “METHODS AND COMPOSITIONS FOR IMPROVED TISSUE REGENERATION BY SUPPRESION OF INTERFERIN-GAMMA AND TUMOR NECROSIS FACTOR-ALPHA” (Alfred E. Mann Institute for Biomedical Eng. at the …, priority 2011, published 2018).
Entries after “also recorded” stand apart in the source; their conditions may differ.

Key:
GFP^+ BMMSCs = test: Cell survival assay, subcutaneous GFP+ BMMSC implantation; format: in vivo, mice; conditions: TNF-α 50 ng/ml, immunocompromised mice, 30 days post implantation, vs untreated control
Description: Cell survival assay. 4×10^6 BMMSCs isolated from C57BL/6-Tg (CAG-EGFP)1Osb/J mice were combined with different concentrations of IFN-γ (0, 20, 50, 100, 200 ng/ml) and TNF-α (0, 20, 50, 100, 200 ng/ml) and subcutaneously transplanted into immunocompromised mice, hydrogel was used as a slowly released carrier. Thirty days after translation, the implants were harvested and digested in a solution of 3 mg/mL collagenase type I (Worthington Biochem) and 4 mg/mL dispase (Roche) for 1 h at 37° C. Single-cell suspensions were obtained by passing the cells through a 70 μm strainer (BD Bioscience). 1.0-1.5×10^6 BMMSCs were seeded into 100 mm culture dishes (Corning) and incubated for 48 hours under 37° C. at 5% CO2 condition. To eliminate the non-adherent cells, the cultures were washed with PBS twice. The attached cells were cultured for 10 days with alpha minimum essential medium (α-MEM, Invitrogen) supplemented with 20% FBS, 2 mM L-glutamine (Invitrogen), 55 μM 2-mercaptoethanol (Invitrogen), 100 U/ml penicillin, and 100 μg/ml streptomycin (Invitrogen). The numbers of GFP positive cells were counted under fluorescent microscopy.

[1] = system: BMMSC-mediated bone formation; test: BMMSC-mediated bone formation, subcutaneous BMMSC/HA/TCP implantation; format: in vivo; conditions: 200 ng cytokine in hydrogel co-implanted with BMMSCs/HA/TCP, immunocompromised mice, 8 weeks post implantation
Description: BMMSC-mediated bone formation. Approximately 4.0×10^6 BMMSCs were mixed with hydroxyapatite/tricalcium phosphate (HA/TCP) ceramic particles (40 mg, Zimmer Inc., Warsaw, Ind.) as a carrier and subcutaneously implanted into the dorsal surface of 8-10 weeks old immunocompromised mice or C57BL/6J mice. At eight weeks post-implantation, the implants were harvested, fixed in 4% paraformaldehyde and then decalcified with 5% EDTA (pH 7.4), followed by paraffin embedding. The 6 μm paraffin sections were stained with hematoxylin and eosin (H&E) and analyzed by an NIH Image J. Five fields were selected and newly formed mineralized tissue area in each field was calculated and shown as a percentage to total tissue area.
Cytokines in BMMSC-mediated bone formation. Approximately 4.0×10^6 of littermate-derived or autologous BMMSCs were mixed with HA/TCP ceramic powders (40 mg, Zimmer Inc.), and hydrogel (Glycosan Biosysterms, Salt Lake City, Utah) with 200 ng IFN-γ, TNF-α, IL-4, IL-6 or IL-17A were covered on the surface of the implants as a slow released system. At eight weeks post-implantation, the implants were harvested and newly formed mineralized tissue areas were analyzed. […]
BMMSC-mediated bone formation. Approximately 4.0×10^6 of littermate-derived or autologous BMMSCs were mixed with hydroxyapatite/tricalcium phosphate (HA/TCP) ceramic particles (40 mg, Zimmer Inc., Warsaw, Ind.) as a carrier and subcutaneously implanted into the dorsal surface of 8-10 weeks old immunocompromised mice or C57BL6 mice. When aspirin was used, BMMSCs were treated with 50 μg/ml aspirin for 2 days and mixed with HA/TCP particles to be subcutaneously implanted into immunocompromised mice. When IFN-γ and TNF-α were used in the subcutaneous implants, 200 ng IFN-γ, TNF-α or/and 100 μg aspirin mixed with 250 μl hydrogel as a slow released system and subcutaneously co-implanted to the dorsal surface of 8-10 weeks old immunocompromised mice.
At eight weeks post-implantation, the implants were harvested, fixed in 4% paraformaldehyde and then decalcified with 5% EDTA (pH 7.4), followed by paraffin embedding. The 6 μm paraffin sections were stained with hematoxylin and eosin (H&E) and analyzed by an NIH Image J. Five fields were selected and newly formed mineralized tissue area in each field was calculated and shown as a percentage to total tissue area.

[2] = system: Fas, caspase 8, caspase 3; test: Western blot of Fas, cleaved caspase 8 and cleaved caspase 3 in BMMSCs; format: cell-based, mouse; conditions: wild type BMMSCs; IFN-γ 50 ng/ml, TNF-α 20 ng/ml, alone or co-stimulated
Description: Western blot analysis. Total protein was extracted using M-PER mammalian protein extraction reagent (Thermo, Rockford, Ill.). Nuclear protein was obtained using NE-PER nuclear and cytoplasmic extraction reagent (Thermo). Protein was applied and separated on 4-12% NuPAGE gel (Invitrogen) and transferred to Immobilon™-P membranes (Millipore). The membranes were blocked with 5% non-fat dry milk and 0.1% tween-20 for 1 hour, followed by incubation with the primary antibodies (1:20¬1000 dilution) at 4° C. overnight. Horseradish peroxidase-conjugated IgG (Santa Cruz Biosciences; 1:10,000) was used to treat the membranes for 1 hour, and enhanced with a SuperSignal® West Pico Chemiluminescent Substrate (Thermo). The bands were detected on BIOMAX MR films (Kodak, Rochester, N.Y.). Each membrane was also stripped using a stripping buffer (Thermo) and reprobed with anti-β-actin antibody to quantify the amount of loaded protein.
SiRNAs for Fas, TNFR2, IKK, FLIP and XIAP were used to treat the BMMSCs according to the manufacture's instruction, and IFN-γ and TNF-α were added for 24 hrs. Inhibitors for internalization (Latrunculin A, 0.2 μM), pan caspase (Z-VAD (OMe)-FMK, 50 μM), caspase 8 ([…], 20 μM) and caspase 3 (Z-DEVD-FMK, 20 µM) were used to treat the BMMSCs at 4 hrs before IFN-γ and TNF-α were added. Cell apoptosis were analysis by immunofluorescence staining and FACS^Calibur (Annexin V-PE apoptosis detection kit I) and Western blot analysis for caspase 8, cleaved caspase 8, caspase 3 and cleaved caspase 3.

BMMSCs = test: Cell apoptosis and cell survival assay in vitro (toluidine blue, Annexin V); conditions: TNF-α 0, 5, 50, 100 ng/ml, flow cytometric analysis
Description: Cell apoptosis and cell survival assay. 0.5×10^6 BMMSCs were seeded to 6-well culture plate and co-cultured with different doses of recombined IL-4, IL-6, IL-17A, TGF-β1, TNF-α and IFN-γ (0, 10, 20, 50, 100, 200 ng/ml) for 3 days. To measure the cell viability, the total cells were analyzed by using a cell counting kit-8 (Dojindo Molecular Technoloies, Gaithersburg, Md.) according to the manufacture's instruction. And the culture plates with cells were stained with 2% toluidine blue O and 2% paraformaldehyde (Sigma-Aldrich Corporate, St. Louis, Mo.).
For cell apoptosis analysis, the BMMSCs were stained by Annexin V-PE apoptosis detection kit I (BD Bioscience) following manufacture's protocol, and analyzed by FACS^Calibur (BD Bioscience).
IFN-γ and TNF-α synergism for apoptosis. For cell apoptosis staining, the 1×10^4 BMMSCs were seeded onto two chambers slide, IFN-γ (50 ng/ml) and TNF-α (20 ng/ml) were used to treat the BMMSCs for 24 hrs either separately or combined, Annexin V-PE apoptosis detection kit I (BD Bioscience) was used to stain the BMMSCs following manufacture's protocol, and analyzed on microscopy and FACS^Calibur (BD Bioscience). Cell viability was analyzed by using cell counting kit, and culture plates were stained with 2% toluidine blue O and 2% paraformaldehyde.
IFN-γ and TNF-α synergism for apoptosis. 0.5×10^6 BMMSCs were seeded to 6-well culture plate and co-cultured with different doses of TNF-α (0, 5, 50, 100 ng/ml) with or without IFN-γ (50 ng/ml) for I day. Then, the BMMSCs were stained by Annexin V-PE apoptosis detection kit I (BD Bioscience) following manufacture's protocol, and analyzed by FACS^Calibur (BD Bioscience).

Substance: TNF-α
- numbers of surviving BMMSCs in implants (GFP^+ BMMSCs): marked reduction in the numbers of survived BMMSCs; also recorded: significant reduction in the numbers of surviving cells
- new bone formation in BMMSC implants [1]: very limited bone formation; also recorded: inhibited subcutaneous bone formation; also recorded: reduced BMMSC-mediated bone formation; also recorded: significantly reduced bone formation
- Fas expression [2]: slightly increase
- activation of caspase 3 and caspase 8 [2]: slightly increase
- BMMSC apoptosis (BMMSCs): dose-dependent BMMSC apoptosis
